The record followed here is the supplement of paper PMC10307832.

Assay in all cases: relative viability (nuclei count vs DMSO), 5 days (fraction); higher = more cells survive
Compound in one assay: CC[C@H](Nc1ncnc2[nH]cnc12)c1nc2cccc(F)c2c(=O)n1-c1ccccc1 [Idelalisib]
Put shortly: (§1)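 Nuclei counted with MetaXpress define viability as the ratio of treated to vehicle wells, given as a median across plates. The lung cancer cell lines were in 1536-well plates, pinned with five √10-spaced library-drug doses and imaged at 4× after 5 days and Hoechst staining. Plates passed with control CV below 25% and at least one doubling.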

Compound in the next assay: Nc1nc2[nH]cc(CCc3ccc(C(=O)N[C@@H](CCC(=O)O)C(=O)O)cc3)c2c(=O)[nH]1 [Pemetrexed]
Put shortly: as §1

Compound in the assay “Pemetrexed + Trametinib”: Nc1nc2[nH]cc(CCc3ccc(C(=O)N[C@@H](CCC(=O)O)C(=O)O)cc3)c2c(=O)[nH]1 [Pemetrexed] + CC(=O)Nc1cccc(-n2c(=O)n(C3CC3)c(=O)c3c(Nc4ccc(I)cc4F)n(C)c(=O)c(C)c32)c1 [Trametinib] (partner 0.02 µM)
Put shortly: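 Lung cancer cell lines in 1536-well plates were dosed by pin tool the day after seeding, either with one drug alone or with a fixed anchor-drug dose plus five library-drug doses (not always all listed) in √10 steps. After 5 days, cells were fixed and their nuclei stained in one step (final 0.05% Triton X-100, 1% formaldehyde, 1 ug/ml Hoechst), then counted on 4× images. Relative viability is the nuclei count in treated wells divided by that in vehicle wells. Values are medians of duplicate plates.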

For UMC-11, the relative viability in the assay with Idelalisib (0.04 µM) came out at 1.04; in the assay with Idelalisib (0.1265 µM), 1.05; with Idelalisib (0.4 µM), 0.921; with Idelalisib (1.265 µM), 1.01; with Idelalisib (4 µM), 0.984; with Pemetrexed (0.002 µM) it was 0.996. Also, the relative viability in the assay with Pemetrexed (0.006325 µM) came to 0.955; with Pemetrexed (0.02 µM), 1.04; with Pemetrexed (0.06325 µM), 1.03; with Pemetrexed (0.2 µM), 0.846; with Pemetrexed (0.2 µM, anchor plate), 0.805; with Pemetrexed + Trametinib (first compound 0.002 µM) it was 0.659. Further, the relative viability with Pemetrexed + Trametinib (first compound 0.006325 µM) was 0.663; in the assay with Pemetrexed + Trametinib (first compound 0.02 µM) it was 0.819; with Pemetrexed + Trametinib (first compound 0.06325 µM), 0.655; with Pemetrexed + Trametinib (first compound 0.2 µM), 0.619.
